Reference: the supplement of paper PMC8671470

Experiments:
Experiment in all cases: cell viability (% survival relative to DMSO control, bortezomib = 0%); higher = less cytotoxic
Conditions in all cases: 72 h
HL-60 = system: HL-60
Summary of the method: (§1)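 Reported values are percent survival from duplicate wells, averaged. Fifteen myeloid leukaemia cell lines were treated in 384-well plates with compounds at 1, 10, 100, 1000 or 10000 nM for 72 h at 37 °C in 5% CO2. Signals from CellTiter-Glo luminescence were scaled with vehicle as 100% and a 10 µM positive control as 0%.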

K-562 = system: K-562
Summary of the method: as §1

ML-2 = system: ML-2
Summary of the method: as §1

MV4-11 = system: MV4-11
Summary of the method: as §1

| Structure (SMILES) | cell viability (HL-60; 1 nM) | cell viability (HL-60; 10 nM) | cell viability (HL-60; 100 nM) | cell viability (HL-60; 1000 nM) | cell viability (HL-60; 10000 nM) | cell viability (K-562; 1 nM) | cell viability (K-562; 10 nM) | cell viability (K-562; 100 nM) | cell viability (K-562; 1000 nM) | cell viability (K-562; 10000 nM) | cell viability (ML-2; 1 nM) | cell viability (ML-2; 10 nM) | cell viability (ML-2; 100 nM) | cell viability (ML-2; 1000 nM) | cell viability (ML-2; 10000 nM) | cell viability (MV4-11; 1 nM) | cell viability (MV4-11; 10 nM) | cell viability (MV4-11; 100 nM) | cell viability (MV4-11; 1000 nM) | cell viability (MV4-11; 10000 nM) |
| --- | --- | --- | --- | --- | --- | --- | --- | --- | --- | --- | --- | --- | --- | --- | --- | --- | --- | --- | --- | --- |
| Clc1ccc2c(c1Cl)CNCC2 | 101% | 194% | 90.1% | 103% | 95.8% | 103% | 97.7% | 95.4% | 107% | 88.7% | 91.5% | 118% | 90% | 102% | 87.9% | 99.7% | 114% | 96.3% | 114% | 91.6% |
| O=c1c2ccccc2[se]n1-c1ccccc1 [Ebselen] | 107% | 94.8% | 102% | 95.6% | 77.6% | 96.6% | 102% | 91% | 90.5% | 72.3% | 95.6% | 96.7% | 96.1% | 96.9% | 82% | 93% | 92.5% | 93.8% | 99.7% | 68% |
| CCOC(=O)[C@H]1O[C@@H]1C(=O)N[C@@H](CC(C)C)C(=O)NCCC(C)C [Aloxistatin] | 103% | 120% | 108% | 114% | 74% | 90.9% | 112% | 85.4% | 105% | 99.1% | 99% | 86.2% | 87.1% | 100% | 88.3% | 99.1% | 104% | 110% | 97.8% | 87.8% |
| Clc1ccc(COC(Cn2ccnc2)c2ccc(Cl)cc2Cl)cc1 (stereo not given) [Econazole] | 120% | 80.3% | 109% | 81.2% | 41.5% | 97.4% | 89.8% | 93.1% | 69% | 38.1% | 110% | 88.3% | 112% | 89.8% | 58.1% | 103% | 83.4% | 89.3% | 57.4% | 25.2% |
| Oc1cc(Cl)ccc1Oc1ccc(Cl)cc1Cl [Triclosan] | 90.3% | 76.6% | 85.1% | 106% | 102% | 103% | 105% | 93.8% | 106% | 66.6% | 101% | 104% | 102% | 114% | 93.5% | 110% | 82.5% | 104% | 93.7% | 82.1% |
| CC(C)Cc1sc(N)nc1-c1ccc(P(=O)(O)O)o1 | 56.2% | 90.1% | 72.8% | 105% | 67% | 104% | 118% | 109% | 103% | 92.5% | 98.1% | 108% | 105% | 103% | 92.7% | 102% | 101% | 113% | 101% | 87.3% |
| O=C(O)c1nn(Cc2ccc(Cl)cc2Cl)c2ccccc12 [Lonidamine] | 100% | 119% | 90.2% | 82.2% | 105% | 94.2% | 104% | 118% | 98.4% | 82.6% | 102% | 106% | 101% | 93.7% | 95.1% | 78.5% | 96.2% | 88.9% | 98.1% | 106% |
| CCOc1ccc(Cc2cc([C@@H]3O[C@H](CO)[C@@H](O)[C@H](O)[C@H]3O)ccc2Cl)cc1 [Dapagliflozin] | 101% | 86.8% | 81.3% | 94.4% | 104% | 98.9% | 108% | 81.4% | 101% | 94.6% | 84.8% | 111% | 85.1% | 108% | 105% | 93.7% | 106% | 94.3% | 94.6% | 86.9% |
| C#Cc1cnc(O)nc1O [Eniluracil] | 112% | 134% | 123% | 95.1% | 111% | 101% | 113% | 113% | 102% | 94.5% | 102% | 120% | 110% | 97.3% | 107% | 102% | 112% | 104% | 108% | 106% |
| O=C(O)C(Cl)Cl [Dichloroacetate] | 96.5% | 115% | 104% | 109% | 120% | 96.5% | 108% | 93% | 96.2% | 105% | 91.7% | 102% | 103% | 95.8% | 103% | 99.6% | 91.5% | 83.5% | 98.5% | 102% |
| CCCc1nn(C)c2c(O)nc(-c3cc(S(=O)(=O)N4CCN(C)CC4)ccc3OCC)nc12 [Sildenafil] | 99.7% | 88.7% | 100% | 82.9% | 111% | 91.1% | 93% | 94.9% | 110% | 103% | 92.3% | 103% | 93.1% | 109% | 107% | 99.6% | 95.1% | 101% | 98.8% | 119% |
| COc1c(C)c2c(c(O)c1C/C=C(\C)CCC(=O)O)C(=O)OC2 [Mycophenolic acid] | 108% | 117% | 80% | 51.3% | 18.4% | 91.3% | 102% | 91.5% | 36.5% | 13.6% | 116% | 105% | 86.5% | 22.7% | 8.02% | 103% | 94.5% | 90.7% | 26.5% | -0.47% |
| Cc1c(-c2ccccc2)oc2c(C(=O)OCCN3CCCCC3)cccc2c1=O.Cl [Flavoxate] | 89.2% | 121% | 90.7% | 102% | 103% | 91% | 90% | 89.8% | 98.8% | 83.2% | 99.1% | 99.5% | 105% | 101% | 103% | 87.5% | 83.6% | 97.9% | 94.8% | 98.6% |
